Assay results published in PubChem BioAssay (NCI).
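Method: 48-hour compound exposure of cells in 96-well plates, five concentrations, linear interpolation of endpoints. GI50 marks 50% less growth. TGI: concentration producing complete growth inhibition.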 Where a SMILES comes first, the peptide text is derived from it. The star is where a group is joined. Bn = c1ccc(C*)cc1

These compounds were tested on NCI/ADR-RES ovarian (assay: growth of human tumour cells (NCI), 48 h).

`O=C(c1ccccc1)N1C(=S)N=C(Nc2ccccc2)C1=Nc1ccccc1` and `N#Cc1c(C#N)c(-c2ccccc2)n(-c2ccccc2)c1N` cannot be ordered by TGI: > 100 µM for the first, > 100 µM for the second.

`COc1ccc(N=NC(=Nc2ccc(F)cc2)c2ccc(N(CCC#N)CCC#N)cc2)cc1` and `O=C(Nc1ccc(-n2cc(-c3ccncc3)c(-c3ccc(O)c(Cl)c3)n2)cc1)Nc1cccc(Cl)c1Cl` cannot be ordered by TGI: > 100 µM for the first, > 32.5 µM for the second.

`CSC(SC)=C1C(=O)N(c2ccccc2)N=C1C` and `N#CC(=N)c1ncn(-c2ccccc2N)c1N` cannot be ordered by TGI: > 100 µM for the first, > 100 µM for the second.

`O=C(CNCc1ccccc1)Oc1c(Cl)c(Cl)c(Cl)c(Cl)c1Cl` and `COc1ccccc1N1CCN(CCCNC(=O)c2cc(Cl)c(N)c(Cl)c2)CC1` cannot be ordered by TGI: > 100 µM for the first, > 100 µM for the second.

`O=C(O)CC(NC(=O)/C(=C/c1ccccc1O)NC(=O)c1ccccc1)C(=O)O` (configuration not stated) and `O=C(O)c1c2c(cc3c1CC1(Cc4ccccc4C1=O)C3)CCC2` (configuration not stated) cannot be ordered by TGI: > 100 µM for the first, > 100 µM for the second.

With `O=C(Nc1ccc(-n2cc(-c3ccncc3)c(-c3ccc(O)c(Cl)c3)n2)cc1)Nc1cccc(Cl)c1Cl` the GI50 was > 32.5 µM.

What follows are compounds tested on SK-MEL-2 melanoma (assay: growth of human tumour cells (NCI), 48 h).

`O=C(O)CSC(NC(=O)C(C(F)(F)F)C(F)(F)F)(C(F)(F)F)C(F)(F)F` and `O=C(O)CC(NC(=O)/C(=C/c1ccccc1O)NC(=O)c1ccccc1)C(=O)O` (configuration not stated) cannot be ordered by TGI: > 100 µM for the first, > 100 µM for the second.

`CN(C)P(=O)(Oc1occc1C(O)Cc1ccccc1)N(C)C` (configuration not stated) and `COC(=O)C(CC(C)C)NC(=O)C(N)Cc1ccc(OCc2ccccc2)cc1` (configuration not stated) (H-Tyr(Bn)-Leu-OMe; configuration not given here) cannot be ordered by TGI: > 100 µM for the first, > 10 µM for the second.

Going from `CC1=CC(=O)CC2(C)CCC(C(C)CC(=O)CC(C)C)CC12` (configuration not stated) to `O=C(CCCN1CCC2(CC1)C(=NC1CCCCC1)NC(=O)N2c1ccccc1)c1ccc(F)cc1`, the TGI falls from > 100 µM to 31.9 µM.

`Nc1nc(Nc2ccc(Cl)cc2)sc1C(=O)c1cccs1` and `O=C(c1ccccc1)N1C(=S)N=C(Nc2ccccc2)C1=Nc1ccccc1` cannot be ordered by TGI: > 100 µM for the first, > 100 µM for the second.

`Cc1c(C#N)c(N)n(C2OCC(O)C(O)C2O)c(=S)c1C#N` (configuration not stated) and `N#Cc1c(C#N)c(-c2ccccc2)n(-c2ccccc2)c1N` cannot be ordered by TGI: > 100 µM for the first, > 100 µM for the second.

First: CCN(CC)CCNc1ccc2ncn3c4cc(OC)c(OC)c(=O)c4c(O)c1c23
Second: COc1cc([C@@H]2c3cc4c(cc3[C@@H](c3c(O)cc(O)c5c3O[C@H](c3ccc(O)c(O)c3)[C@@H](O)C5)[C@H]3COC(=O)[C@H]23)OCO4)cc(OC)c1O
The TGI of the first is lower: 42.7 µM for the first, > 100 µM for the second.

Compared with `O=C1CS(=O)C23c4cc5ccccc5n4CCC2CCCN13` (configuration not stated), `O=C(O)c1c2c(cc3c1CC1(Cc4ccccc4C1=O)C3)CCC2` (configuration not stated) is lower in TGI: > 100 µM for the first, 55.1 µM for the second.

`CN1COCc2cc3cc4c(cc3nc21)OCCO4` and `COc1ccc2c(c1)CCN=C2c1ccccc1CCCCl` cannot be ordered by TGI: > 100 µM for the first, > 100 µM for the second.

`Cc1ccc(-c2c(C#N)c(-c3ccc([N+](=O)[O-])cc3)c(C#N)c(=O)n2NS(=O)(=O)c2ccccc2)cc1` and `COc1ccc(-c2csc(NC(=O)CSc3nc(C)c(-c4ccccc4)n3Nc3ccccc3)n2)cc1` cannot be ordered by TGI: > 100 µM for the first, > 100 µM for the second.

`CCOC(=O)C1(C(=O)OCC)CCCN1C(=O)[C@H](CNC(=O)OC(C)(C)C)NC(=O)OCc1ccccc1` and `CCCCC/C(C=O)=C\c1ccccc1` cannot be ordered by TGI: > 100 µM for the first, > 100 µM for the second.

`O/C(=C\c1nc2ccccc2nc1NC12CC3CC(CC(C3)C1)C2)c1ccc(Br)cc1` and `CSC(SC)=C1C(=O)N(c2ccccc2)N=C1C` cannot be ordered by TGI: > 10 µM for the first, 46.8 µM for the second.

Going from `O=C(CNCc1ccccc1)Oc1c(Cl)c(Cl)c(Cl)c(Cl)c1Cl` to `N#CC(=N)c1ncn(-c2ccccc2N)c1N`, the TGI rises from 92 µM to > 100 µM.

In the case of `O=C(Nc1ccc(-n2cc(-c3ccncc3)c(-c3ccc(O)c(Cl)c3)n2)cc1)Nc1cccc(Cl)c1Cl`, the TGI is reported as > 32.5 µM.

`COc1ccc(-c2csc(NC(=O)CSc3nc(C)c(-c4ccccc4)n3Nc3ccccc3)n2)cc1` and `O=C(Nc1ccc(-n2cc(-c3ccncc3)c(-c3ccc(O)c(Cl)c3)n2)cc1)Nc1cccc(Cl)c1Cl` are within 1.5-fold of each other in GI50: 9.52 µM for the first, 7.18 µM for the second.

The compounds below were run on SN12C renal (assay: growth of human tumour cells (NCI), 48 h).

`O=C(O)CSC(NC(=O)C(C(F)(F)F)C(F)(F)F)(C(F)(F)F)C(F)(F)F` and `O=C(O)CC(NC(=O)/C(=C/c1ccccc1O)NC(=O)c1ccccc1)C(=O)O` (configuration not stated) cannot be ordered by TGI: > 100 µM for the first, > 100 µM for the second.

`CN(C)P(=O)(Oc1occc1C(O)Cc1ccccc1)N(C)C` (configuration not stated) and `COC(=O)C(CC(C)C)NC(=O)C(N)Cc1ccc(OCc2ccccc2)cc1` (configuration not stated) (H-Tyr(Bn)-Leu-OMe; configuration not given here) cannot be ordered by TGI: > 100 µM for the first, > 10 µM for the second.

`CC1=CC(=O)CC2(C)CCC(C(C)CC(=O)CC(C)C)CC12` (configuration not stated) and `O=C(CCCN1CCC2(CC1)C(=NC1CCCCC1)NC(=O)N2c1ccccc1)c1ccc(F)cc1` are within 1.5-fold of each other in TGI: 32.6 µM for the first, 40.7 µM for the second.

First: OCC(O)C(O)C(O)/C=N/Nc1nc(O)c(/C=C2\C=Nc3ccccc32)[nH]1 (configuration not stated)
Second: CSC(SC)=C1C(=O)N(c2ccccc2)N=C1C
The TGI of the first is higher: > 100 µM for the first, 97.3 µM for the second.

Going from `COc1cc2c(cc1OC)C13CC[N+]4(C)CC5=CCOC6CC(=O)N2C1C6C5CC34[O-]` (configuration not stated) to `CCN(CC)CCNc1ccc2ncn3c4cc(OC)c(OC)c(=O)c4c(O)c1c23`, the TGI falls from > 100 µM to 21.5 µM.

Going from `Nc1nc(Nc2ccc(Cl)cc2)sc1C(=O)c1cccs1` to `S=C1CC(c2ccccc2)Sc2ccc(Cl)cc2N1` (configuration not stated), the TGI rises from 50.6 µM to > 100 µM.

`Cc1c(C#N)c(N)n(C2OCC(O)C(O)C2O)c(=S)c1C#N` (configuration not stated) and `N#Cc1c(C#N)c(-c2ccccc2)n(-c2ccccc2)c1N` cannot be ordered by TGI: > 100 µM for the first, > 100 µM for the second.

Compared with `CCOC(=O)[C@@H]1ON2O[C@@H](OC3CCCC3(c3ccccc3)c3ccccc3)C[C@H]3OC(=O)[C@@H]1C32` (some centres not stated), `O=c1n(Cc2ccccc2)c(=O)n2c(=O)n(Cc3ccccc3)c(=O)n12` is higher in TGI: 80.3 µM for the first, > 100 µM for the second.

`O=C1CS(=O)C23c4cc5ccccc5n4CCC2CCCN13` (configuration not stated) and `O=C(O)c1c2c(cc3c1CC1(Cc4ccccc4C1=O)C3)CCC2` (configuration not stated) cannot be ordered by TGI: > 100 µM for the first, > 100 µM for the second.

`CN1COCc2cc3cc4c(cc3nc21)OCCO4` and `COc1cc([C@@H]2c3cc4c(cc3[C@@H](c3c(O)cc(O)c5c3O[C@H](c3ccc(O)c(O)c3)[C@@H](O)C5)[C@H]3COC(=O)[C@H]23)OCO4)cc(OC)c1O` cannot be ordered by TGI: > 100 µM for the first, > 100 µM for the second.

`Cc1ccc(-c2c(C#N)c(-c3ccc([N+](=O)[O-])cc3)c(C#N)c(=O)n2NS(=O)(=O)c2ccccc2)cc1` and `COc1ccc(-c2csc(NC(=O)CSc3nc(C)c(-c4ccccc4)n3Nc3ccccc3)n2)cc1` cannot be ordered by TGI: > 100 µM for the first, > 100 µM for the second.

First: COc1ccc2c(c1)CCN=C2c1ccccc1CCCCl
Second: COc1ccccc1N1CCN(CCCNC(=O)c2cc(Cl)c(N)c(Cl)c2)CC1
The TGI of the first is lower: 54.4 µM for the first, > 100 µM for the second.

Compared with `Clc1ccc(Cl)c(SCCCN2CCNCC2)c1`, `O=C(CNCc1ccccc1)Oc1c(Cl)c(Cl)c(Cl)c(Cl)c1Cl` is higher in TGI: 37.8 µM for the first, > 100 µM for the second.

`CCOC(=O)C1(C(=O)OCC)CCCN1C(=O)[C@H](CNC(=O)OC(C)(C)C)NC(=O)OCc1ccccc1` and `N#CC(=N)c1ncn(-c2ccccc2N)c1N` cannot be ordered by TGI: > 100 µM for the first, > 100 µM for the second.

`O/C(=C\c1nc2ccccc2nc1NC12CC3CC(CC(C3)C1)C2)c1ccc(Br)cc1` and `O=C(c1ccccc1)N1C(=S)N=C(Nc2ccccc2)C1=Nc1ccccc1` cannot be ordered by TGI: > 10 µM for the first, > 100 µM for the second.

`COc1ccc(N=NC(=Nc2ccc(F)cc2)c2ccc(N(CCC#N)CCC#N)cc2)cc1` and `O=C(Nc1ccc(-n2cc(-c3ccncc3)c(-c3ccc(O)c(Cl)c3)n2)cc1)Nc1cccc(Cl)c1Cl` cannot be ordered by TGI: > 100 µM for the first, > 32.5 µM for the second.

First: COc1ccc(-c2csc(NC(=O)CSc3nc(C)c(-c4ccccc4)n3Nc3ccccc3)n2)cc1
Second: O=C(Nc1ccc(-n2cc(-c3ccncc3)c(-c3ccc(O)c(Cl)c3)n2)cc1)Nc1cccc(Cl)c1Cl
The GI50 of the first is 4.9-fold lower: 4.03 µM for the first, 19.9 µM for the second.
